The values below are quoted from earlier work in US20190274302A1, “COMPOSITIONS FOR ACTIVE TREATING AND […] DISEASES” (priority 2018, published 2019).

Like-named read-outs stand apart in the source and are kept apart here.

Consider `CC(=O)O` [acetic acid], for which the pH reads like this: (1 mM) 3.91; (10 mM) 3.39; (100 mM) 2.88.
Consider `O=C1O[C@H]([C@@H](O)CO)C(O)=C1O` [ascorbic acid], for which the pH is, setting by setting: (1 mM) 3.59; (10 mM) 3.04; (100 mM) 2.53.
In the case of `O=C(O)c1ccccc1` [benzoic acid], the pH is, setting by setting: (1 mM) 3.66; (10 mM) 3.12; (100 mM) 2.60.
Consider `O=C(O)/C=C(/CC(=O)O)C(=O)O` [cis-aconitic acid], for which the pH (1 mM) is 3.05, the pH (10 mM) is 2.21 and the pH (100 mM) is given as 1.55.
With `O=C(O)CC(O)(CC(=O)O)C(=O)O` [citric acid], the pH is, setting by setting: (1 mM) 3.24; (10 mM) 2.62; (100 mM) 2.08.
For `O=CO` [formic acid], the pH by setting is: (1 mM) 3.47; (10 mM) 2.91; (100 mM) 2.38.
Take `CC(O)C(=O)O` (stereo not drawn) [lactic acid]: the pH by setting is: (1 mM) 3.51; (10 mM) 2.96; (100 mM) 2.44.
For `O=C(O)CC(O)C(=O)O` (stereo not drawn) [malic acid], the pH is, setting by setting: (1 mM) 3.33; (10 mM) 2.74; (100 mM) 2.21.
As for `O=C(O)CC(=O)O` [malonic acid], the pH was 3.17 (1 mM), 2.50 (10 mM) and 1.94 (100 mM).
In the case of `O=C(O)C(=O)O` [oxalic acid], the pH was 3.00 (1 mM), 2.09 (10 mM) and 1.31 (100 mM).
Regarding `Oc1ccccc1` [phenol], the pH is, setting by setting: (1 mM) 6.47; (10 mM) 5.99; (100 mM) 5.49.
For `CCC(=O)O` [propanoic acid], the pH runs as follows: (1 mM) 3.96; (10 mM) 3.44; (100 mM) 2.94.
As for `O=C(O)c1ccccc1O` [salicylic acid], the pH (1 mM) is 3.21, the pH (10 mM) was 2.57 and the pH (100 mM) was 2.02.
Take `O=C(O)/C=C(\CC(=O)O)C(=O)O` [trans-aconitic acid]: the pH is on record as 3.14 (1 mM), 2.48 (10 mM) and 1.92 (100 mM).
